The conditions of series [1]: in vivo; cited from earlier work.
In series [2] the target is T1, glucocorticoid receptor (GR) (Homo sapiens, UniProt P04150).
T1 sequence (P04150 1-777): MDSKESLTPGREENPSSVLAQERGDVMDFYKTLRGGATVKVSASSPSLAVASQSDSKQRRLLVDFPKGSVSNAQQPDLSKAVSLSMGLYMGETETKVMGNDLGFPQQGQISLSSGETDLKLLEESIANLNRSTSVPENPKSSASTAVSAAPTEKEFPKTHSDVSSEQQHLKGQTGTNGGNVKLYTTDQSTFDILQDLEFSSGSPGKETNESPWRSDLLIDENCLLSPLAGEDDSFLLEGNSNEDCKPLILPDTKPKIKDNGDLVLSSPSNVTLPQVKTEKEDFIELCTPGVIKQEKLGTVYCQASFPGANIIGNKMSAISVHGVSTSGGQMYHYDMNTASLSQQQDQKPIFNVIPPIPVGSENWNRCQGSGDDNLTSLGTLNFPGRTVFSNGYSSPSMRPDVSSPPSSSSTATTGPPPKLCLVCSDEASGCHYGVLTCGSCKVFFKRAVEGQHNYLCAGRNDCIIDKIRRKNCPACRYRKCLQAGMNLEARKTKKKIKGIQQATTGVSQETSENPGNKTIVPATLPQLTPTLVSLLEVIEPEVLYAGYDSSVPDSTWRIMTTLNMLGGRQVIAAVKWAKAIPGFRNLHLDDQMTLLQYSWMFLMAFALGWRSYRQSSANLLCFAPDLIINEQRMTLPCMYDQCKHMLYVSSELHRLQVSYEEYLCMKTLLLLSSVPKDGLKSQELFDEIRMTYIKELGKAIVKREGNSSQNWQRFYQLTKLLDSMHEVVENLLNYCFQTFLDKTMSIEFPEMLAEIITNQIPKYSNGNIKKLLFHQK
Conditions: cited from earlier work.

The subject of series [3] is Naïve CD8+ T cells. Kind of series: Quantitative RT-PCR of Prdm1, Nfil3 and Tcf7 in Ctrl, GC, IL-27 or GC+IL-27 treated cells. The class given is cell-based, mouse. As to the method: (§1) Cell culture and treatment with glucocorticoid. CD8^+ T cells from splenocytes and lymph nodes were isolated using CD8 microbeads (Miltenyi). Cells were further stained with antibodies against CD8, CD62L and CD44, and CD8^+CD62L^hiCD44^lo naive cells were sorted by BD FacsAria (BD Biosciences). Sorted cells were cultured for 9 days as described below in DMEM supplemented with 10% (vol/vol) FCS, […], 1 mM sodium pyruvate, nonessential amino acids, L-glutamine, and 100 U/ml penicillin and 100 µg/ml streptomycin.
Quantitative PCR. Total RNA was extracted using RNeasy columns (Qiagen). Reverse transcription of mRNA was performed in a thermal cycler (Bio-Rad) using iScript cDNA Synthesis Kit (Bio-Rad). qPCR was performed in the Vii7 Real-Time PCR system (Applied Biosystems) using the primers for Taqman gene expression (Applied Biosystems). Data were normalized to the expression of Actb.

Series [4] concerns Naïve CD8+ T cells. Briefly: RNA-Seq of naïve CD8+ T cells cultured with anti CD3/28 in the presence of Dex (GC), IL-27 or GC+IL-27 (Tables 1, 2A, 2B, 5-7). The class given is cell-based, mouse. The method, then:
as §1
RNA-Seq data pre-processing. […] Heatmap figures were generated using pheatmap package^53.
Analysis of additive and non-additive effects. To test whether the glucocorticoid and IL-27 signaling pathways had additive or non-additive effects on gene expression, Applicants stimulated naïve CD8^+ T cells in the presence of Dex, IL-27, or Dex+IL-27 in vitro. Applicants tested for non-additive effects between IL-27 and glucocorticoid signaling using a negative binomial generalized linear model in order to account for both estimations of the mean and the dispersion across conditions, where dispersion describes the relationship between the mean and variance. The model was applied to the expression data using ANOVA between a model that takes into account the interaction between IL27 and Dex versus no interaction.

Where “and” joins values, the source holds several entries; their conditions need not be identical. Equal entries are not always repeated.

For `C[C@H]1C[C@@H]2[C@H]([C@@H](O)C[C@@]3(C)[C@H]2CC[C@]3(O)C(=O)CO)[C@@]2(C)C=CC(=O)C=C12` [Methylprednisolone], the “Terminal half-life” value in series [1] is 18 to 40 h.

Consider `C[C@]12C=CC(=O)C=C1CC[C@@H]1[C@@H]2[C@@H](O)C[C@@]2(C)[C@H]1CC[C@]2(O)C(=O)CO` [Prednisolone], for which the Glucocorticoid potency in series [2] is recorded as 4. Moreover, the “Terminal half-life” value in series [1] was 16 to 36 h. As for `C[C@]12C=CC(=O)C=C1CC[C@@H]1[C@@H]2C(=O)C[C@@]2(C)[C@H]1CC[C@]2(O)C(=O)CO` [Prednisone], in series [1], the “Terminal half-life” value was 16 to 36 h. On to `C[C@]12C=CC(=O)C=C1CC[C@H]1[C@@H]3C[C@@H](O)[C@](O)(C(=O)CO)[C@@]3(C)C[C@H](O)[C@@]12F` [Triamcinolone], for which the Glucocorticoid potency in series [2] is on record as 5. Besides, the “Terminal half-life” value in series [1] is 12 to 36 h. Regarding `CC(=O)OCC(=O)[C@H]1CC[C@H]2[C@@H]3CCC4=CC(=O)CC[C@]4(C)[C@H]3CC[C@]12C` [Deoxycorticosterone acetate], the Glucocorticoid potency in series [2] is on record as 0. Regarding `C[C@]12CCC(=O)C=C1CC[C@@H]1[C@@H]2C(=O)C[C@@]2(C)[C@H]1CC[C@]2(O)C(=O)CO` [Cortisone], in series [2], the Glucocorticoid potency is 0.8. With `C[C@]12CCC(=O)C=C1CC[C@@H]1[C@@H]2[C@@H](O)C[C@@]2(C)[C@H]1CC[C@]2(O)C(=O)CO` [Cortisol (hydrocortisone), Cortisol], the Glucocorticoid potency in series [2] is 1.

B1: IL-27: heterodimeric cytokine and a member of the IL-12 family of cytokines that is produced by antigen presenting cells (protein, UniProt Q8NEV9 29-243; Q14213 21-229, looked up)
Interleukin-27 subunit alpha: FPRPPGRPQLSLQELRREFTVSLHLARKLLSEVRGQAHRFAESHLPGVNLYLLPLGEQLPDVSLTFQAWRRLSDPERLCFISTTLQPFHALLGGLGTQGRWTNMERMQLWAMRLDLRDLQRHLRFQVLAAGFNLPEEEEEEEEEEEEERKGLLPGALGSALQGPAQVSWPQLLSTYRLLHSLELVLSRAVRELLLLSKAGHSVWPLGFPTLSPQP
Interleukin-27 subunit beta: RKGPPAALTLPRVQCRASRYPIAVDCSWTLPPAPNSTSPVSFIATYRLGMAARGHSWPCLQQTPTSTSCTITDVQLFSMAPYVLNVTAVHPWGSSSSFVPFITEHIIKPDPPEGVRLSPLAERQLQVQWEPPGSWPFPEIFSLKYWIRYKRQGAARFHRVGPIEATSFILRAVRPRARYYVQVAAQDLTDYGELSDWSLPATATMSLGK
With B1, the “Tcf7 expression (qPCR)” value with Naïve CD8+ T cells [3] is on record as “dramatically reduced”. Moreover, the “transcriptional state of stimulated CD8+ T cells” value with Naïve CD8+ T cells [4] (FIG. 12) is “transcriptionally distinct”. Also, the Tcf7 expression levels with Naïve CD8+ T cells [4] (three values per treatment, control cells 9.93, 8.28, 11.45) is 5.37 and 7.39 and 5.57. The Nupr1 expression levels in the series on Naïve CD8+ T cells [4] (three values per treatment, control cells 12.77, 13.57, 13.47) was 11.93 and 21.86 and 19.79. Besides, in the series with Naïve CD8+ T cells [4] (three values per treatment, control cells 19.54, 18.14, 18.29), the CD28 expression levels is 48.93 and 37.2 and 39.84. In addition, in the series on Naïve CD8+ T cells [4] (three values per treatment, control cells 87.12, 92.82, 96.51), the Lilrb4 expression levels was 73.62 and 94.25 and 105.87.

(Values after patent US11957695B2, “Methods and compositions targeting glucocorticoid signaling for modulating immune responses” (The Broad Institute, Inc., priority 2018, dated 2024).)
